Measurements from ChEMBL document CHEMBL3745709, “Synthesis of novel ethyl 1-ethyl-6-fluoro-7-(fatty amido)-1,4-dihydro-4-oxoquinoline-3-carboxylate derivatives and their biological evaluation” (Bioorg Med Chem Lett, 2016).
In brackets after ≈: the same amount, converted by molar mass.

Experiments:
Candida albicans [1] = experiment: Fungicidal activity against Candida albicans MTCC 1637 assessed as microbial killing after 24 hrs; type: functional; details: MTCC 1637, 24 h
Candida albicans [2] = experiment: Fungicidal activity against Candida albicans MTCC 3958 assessed as microbial killing after 24 hrs; type: functional; details: MTCC 3958, 24 h
A549 [3] = experiment: Selectivity index, ratio of IC50 for human IMR90 cells to IC50 for human A549 cells; type: functional
Staphylococcus aureus [4] = experiment: Antibacterial activity against Staphylococcus aureus MTCC 96 […] after 24 hrs at 30 degC by well diffusion method; type: functional; details: MTCC 96, 24 h
MCF7 = experiment: Cytotoxicity against human MCF7 cells assessed as reduction in cell viability by MTT assay; type: functional, cell-based
Pichia kudriavzevii [5] = experiment: Fungicidal activity against Candida krusei MTCC 3020 assessed as microbial killing after 24 hrs; type: functional; details: MTCC 3020, 24 h
Candida albicans [6] = experiment: Antifungal activity against Candida albicans MTCC 227 assessed as inhibition zone after 24 hrs at 30 degC by well diffusion method; type: functional; details: MTCC 227, 24 h
Raoultella planticola = experiment: Antibacterial activity against Klebsiella planticola MTCC 530 assessed as inhibition zone after 24 hrs at 30 degC by well diffusion method; type: functional; details: MTCC 530, 24 h
Candida albicans [7] = experiment: Antifungal activity against Candida albicans MTCC 3958 assessed as inhibition zone after 24 hrs at 30 degC by well diffusion method; type: functional; details: MTCC 3958, 24 h
Candida albicans [8] = experiment: Fungicidal activity against Candida albicans MTCC 854 assessed as microbial killing after 24 hrs; type: functional; details: MTCC 854, 24 h
[Candida] aaseri [9] = Fungicidal activity against Candida aaseri MTCC 1962 assessed as microbial killing after 24 hrs; type: functional; details: Yamadazyma aaseri, MTCC 1962, 24 h
Candida albicans [10] = experiment: Antifungal activity against Candida albicans MTCC 3017 […] after 24 hrs at 30 degC by well diffusion method; type: functional; details: MTCC 3017, 24 h
[11] = Antioxidant activity assessed as DPPH free radical scavenging activity; type: physicochemical
Staphylococcus aureus [12] = experiment: Bactericidal activity against Staphylococcus aureus MTCC 96 assessed as microbial killing after 24 hrs; type: functional; details: MTCC 96, 24 h
Bacillus subtilis [13] = experiment: Antibacterial activity against Bacillus subtilis MTCC 121 assessed as inhibition zone after 24 hrs at 30 degC by well diffusion method; type: functional; details: MTCC 121, 24 h
Candida albicans [14] = experiment: Antifungal activity against Candida albicans MTCC 1637 assessed as inhibition zone after 24 hrs at 30 degC by well diffusion method; type: functional; details: MTCC 1637, 24 h
Bacillus subtilis [15] = experiment: Antibiofilm activity against Bacillus subtilis MTCC 121 after 24 hrs by crystal violet staining method; type: functional, organism-based; details: MTCC 121, 24 h
Candida albicans [16] = experiment: Fungicidal activity against Candida albicans MTCC 7315 assessed as microbial killing after 24 hrs; type: functional; details: MTCC 7315, 24 h
Bacillus subtilis [17] = experiment: Bactericidal activity against Bacillus subtilis MTCC 121 assessed as microbial killing after 24 hrs; type: functional; details: MTCC 121, 24 h
SK-OV-3 = experiment: Selectivity index, ratio of IC50 for human IMR90 cells to IC50 for human SKOV3 cells; type: functional
Pseudomonas aeruginosa = experiment: Antibacterial activity against Pseudomonas aeruginosa MTCC 2453 assessed as inhibition zone after 24 hrs at 30 degC by well diffusion method; type: functional; details: MTCC 2453, 24 h
Candida albicans [18] = experiment: Antifungal activity against Candida albicans MTCC 3018 assessed as inhibition zone after 24 hrs at 30 degC by well diffusion method; type: functional; details: MTCC 3018, 24 h
[19] = Cytotoxicity against human IMR90 cells assessed as reduction in cell viability by MTT assay; type: cell-based; details: IMR-90
Staphylococcus aureus [20] = experiment: Antibiofilm activity against Staphylococcus aureus MLS-16 MTCC 2940 after 24 hrs by crystal violet staining method; type: functional, organism-based; details: MLS-16 MTCC 2940, 24 h
Candida albicans [21] = experiment: Fungicidal activity against Candida albicans MTCC 227 assessed as microbial killing after 24 hrs; type: functional; details: MTCC 227, 24 h
Candida parapsilosis [22] = experiment: Fungicidal activity against Candida parapsilosis MTCC 1744 assessed as microbial killing after 24 hrs; type: functional; details: Lodderomyces parapsilosis, MTCC 1744, 24 h
Candida albicans [23] = experiment: Fungicidal activity against Candida albicans MTCC 183 assessed as microbial killing after 24 hrs; type: functional; details: MTCC 183, 24 h
Candida albicans [24] = experiment: Antifungal activity against Candida albicans MTCC 854 assessed as inhibition zone after 24 hrs at 30 degC by well diffusion method; type: functional; details: MTCC 854, 24 h
Escherichia coli [25] = experiment: Bactericidal activity against Escherichia coli MTCC 739 assessed as microbial killing after 24 hrs; type: functional; details: MTCC 739, 24 h
Candida albicans [26] = experiment: Fungicidal activity against Candida albicans MTCC 3018 assessed as microbial killing after 24 hrs; type: functional; details: MTCC 3018, 24 h
Candida albicans [27] = experiment: Fungicidal activity against Candida albicans MTCC 3017 assessed as microbial killing after 24 hrs; type: functional; details: MTCC 3017, 24 h
A549 [28] = experiment: Cytotoxicity against human A549 cells assessed as reduction in cell viability by MTT assay; type: functional, cell-based
Nakaseomyces glabratus [29] = experiment: Fungicidal activity against Candida glabrata MTCC 3019 assessed as microbial killing after 24 hrs; type: functional; details: MTCC 3019, 24 h
IMR-90 [30] = experiment: Selectivity index, ratio of IC50 for human IMR90 cells to IC50 for human DU145 cells; type: functional
Escherichia coli [31] = experiment: Antibiofilm activity against Escherichia coli MTCC 739 after 24 hrs by crystal violet staining method; type: functional, organism-based; details: MTCC 739, 24 h
[Candida] aaseri [32] = Antifungal activity against Candida aaseri MTCC 1962 assessed as inhibition zone after 24 hrs at 30 degC by well diffusion method; type: functional; details: Yamadazyma aaseri, MTCC 1962, 24 h
Staphylococcus aureus [33] = experiment: Bactericidal activity against Staphylococcus aureus MLS-16 MTCC 2940 assessed as microbial killing after 24 hrs; type: functional; details: MLS-16 MTCC 2940, 24 h
Pichia sporocuriosa [34] = experiment: Antifungal activity against Issatchenkia hanoiensis MTCC 4755 assessed as inhibition zone after 24 hrs at 30 degC by well diffusion method; type: functional; details: MTCC 4755, 24 h
Candida albicans [35] = experiment: Antifungal activity against Candida albicans MTCC 183 assessed as inhibition zone after 24 hrs at 30 degC by well diffusion method; type: functional; details: MTCC 183, 24 h
Pichia sporocuriosa [36] = experiment: Fungicidal activity against Issatchenkia hanoiensis MTCC 4755 assessed as microbial killing after 24 hrs; type: functional; details: MTCC 4755, 24 h
Nakaseomyces glabratus [37] = experiment: Antifungal activity against Candida glabrata MTCC 3019 assessed as inhibition zone after 24 hrs at 30 degC by well diffusion method; type: functional; details: MTCC 3019, 24 h
Candida albicans [38] = experiment: Fungicidal activity against Candida albicans MTCC 4748 assessed as microbial killing after 24 hrs; type: functional; details: MTCC 4748, 24 h
Micrococcus luteus = experiment: Antibacterial activity against Micrococcus luteus MTCC 2470 assessed as inhibition zone after 24 hrs at 30 degC by well diffusion method; type: functional; details: MTCC 2470, 24 h
[39] = Cytotoxicity against human SKOV3 cells assessed as reduction in cell viability by MTT assay; type: functional, cell-based; details: SK-OV-3
Candida parapsilosis [40] = experiment: Antifungal activity against Candida parapsilosis MTCC 1744 assessed as inhibition zone after 24 hrs at 30 degC by well diffusion method; type: functional; details: Lodderomyces parapsilosis, MTCC 1744, 24 h
Candida albicans [41] = experiment: Antifungal activity against Candida albicans MTCC 7315 assessed as inhibition zone after 24 hrs at 30 degC by well diffusion method; type: functional; details: MTCC 7315, 24 h
Staphylococcus aureus [42] = experiment: Antibiofilm activity against Staphylococcus aureus MTCC 96 after 24 hrs by crystal violet staining method; type: functional, organism-based; details: MTCC 96, 24 h
[43] = Cytotoxicity against human DU145 cells assessed as reduction in cell viability by MTT assay; type: functional, cell-based; details: DU-145
Candida albicans [44] = experiment: Antifungal activity against Candida albicans MTCC 4748 assessed as inhibition zone after 24 hrs at 30 degC by well diffusion method; type: functional; details: MTCC 4748, 24 h
Staphylococcus aureus [45] = experiment: Antibacterial activity against Staphylococcus aureus MLS-16 MTCC 2940 assessed as inhibition zone after 24 hrs at 30 degC by well diffusion method; type: functional; details: MLS-16 MTCC 2940, 24 h
Escherichia coli [46] = experiment: Antibacterial activity against Escherichia coli MTCC 739 assessed as inhibition zone after 24 hrs at 30 degC by well diffusion method; type: functional; details: MTCC 739, 24 h
IMR-90 [47] = experiment: Selectivity index, ratio of IC50 for human IMR90 cells to IC50 for human MCF7 cells; type: functional
Pichia kudriavzevii [48] = experiment: Antifungal activity against Candida krusei MTCC 3020 assessed as inhibition zone after 24 hrs at 30 degC by well diffusion method; type: functional; details: MTCC 3020, 24 h

MIC (Staphylococcus aureus [4]): 3.9 µg/mL (≈ 10.4 µM)
MIC (Candida albicans [6]): 62.5 µg/mL (≈ 166 µM)
MIC (Candida albicans [7]): 31.2 µg/mL (≈ 82.9 µM)
MIC (Candida albicans [10]): 31.2 µg/mL (≈ 82.9 µM)
EC50 [11]: 33.8 µg/mL (≈ 89.8 µM)
MIC (Bacillus subtilis [13]): 7.8 µg/mL (≈ 20.7 µM)
MIC (Candida albicans [14]): 31.2 µg/mL (≈ 82.9 µM)
IC50 (Bacillus subtilis [15]): 4.6 µg/mL (≈ 12.2 µM)
MIC (Pseudomonas aeruginosa): > 125 µg/mL
MIC (Candida albicans [18]): 62.5 µg/mL (≈ 166 µM)
IC50 (Staphylococcus aureus [20]): 9.8 µg/mL (≈ 26 µM)
MIC (Candida albicans [24]): 31.2 µg/mL (≈ 82.9 µM)
IC50 (Escherichia coli [31]): 8.7 µg/mL (≈ 23.1 µM)
MIC ([Candida] aaseri [32]): 31.2 µg/mL (≈ 82.9 µM)
MIC (Pichia sporocuriosa [34]): 31.2 µg/mL (≈ 82.9 µM)
MIC (Candida albicans [35]): 15.6 µg/mL (≈ 41.4 µM)
MIC (Nakaseomyces glabratus [37]): 31.2 µg/mL (≈ 82.9 µM)
MIC (Micrococcus luteus): > 125 µg/mL
MIC (Candida parapsilosis [40]): 31.2 µg/mL (≈ 82.9 µM)
MIC (Candida albicans [41]): 31.2 µg/mL (≈ 82.9 µM)
IC50 (Staphylococcus aureus [42]): 2.1 µg/mL (≈ 5.58 µM)
MIC (Candida albicans [44]): 31.2 µg/mL (≈ 82.9 µM)
MIC (Staphylococcus aureus [45]): 15.6 µg/mL (≈ 41.4 µM)
MIC (Escherichia coli [46]): 15.6 µg/mL (≈ 41.4 µM)
MIC (Pichia kudriavzevii [48]): 62.5 µg/mL (≈ 166 µM)
Compound: CCCCCC(=O)Nc1cc2c(cc1F)c(=O)c(C(=O)OCC)cn2CC
MFC (Candida albicans [1]): 62.5 µg/mL (≈ 166 µM)
MFC (Candida albicans [2]): 62.5 µg/mL (≈ 166 µM)
Ratio IC50 (A549 [3]): 9.9
IC50 (MCF7): 9.8 µM
MFC (Pichia kudriavzevii [5]): 62.5 µg/mL (≈ 166 µM)
MIC (Raoultella planticola): > 125 µg/mL
MFC (Candida albicans [8]): 62.5 µg/mL (≈ 166 µM)
MFC ([Candida] aaseri [9]): 62.5 µg/mL (≈ 166 µM)
MBC (Staphylococcus aureus [12]): 7.8 µg/mL (≈ 20.7 µM)
MFC (Candida albicans [16]): 31.2 µg/mL (≈ 82.9 µM)
MBC (Bacillus subtilis [17]): 7.8 µg/mL (≈ 20.7 µM)
Ratio IC50 (SK-OV-3): 10.2
IC50 [19]: 88.2 µM
MFC (Candida albicans [21]): 125 µg/mL (≈ 332 µM)
MFC (Candida parapsilosis [22]): 62.5 µg/mL (≈ 166 µM)
MFC (Candida albicans [23]): 31.2 µg/mL (≈ 82.9 µM)
MBC (Escherichia coli [25]): 31.2 µg/mL (≈ 82.9 µM)
MFC (Candida albicans [26]): 62.5 µg/mL (≈ 166 µM)
MFC (Candida albicans [27]): 62.5 µg/mL (≈ 166 µM)
IC50 (A549 [28]): 8.9 µM
MFC (Nakaseomyces glabratus [29]): 31.2 µg/mL (≈ 82.9 µM)
Ratio IC50 (IMR-90 [30]): 9
MBC (Staphylococcus aureus [33]): 31.2 µg/mL (≈ 82.9 µM)
MFC (Pichia sporocuriosa [36]): 62.5 µg/mL (≈ 166 µM)
MFC (Candida albicans [38]): 62.6 µg/mL (≈ 166 µM)
IC50 [39]: 8.6 µM
IC50 [43]: 9.8 µM
Ratio IC50 (IMR-90 [47]): 9
